Values joined by “and” are separate entries in the source; they are usually repeats but may differ in a detail not shown here. Equal entries are not always repeated. Where a SMILES comes first, the peptide text is derived from it. [ ]: non-standard residue; d: D form. Hyp = O=C(O)[C@@H]1C[C@@H](O)CN1
System: human PBMCs
Test: PBMC cell counts (total, live, viability; trypan blue, Countess) with and without LPS and test articles (Example 9)
Assay type: cell-based
Method: Treatment Human PBMCs were pretreated with YY-101, YDE-011 and YDE-043 or reference compound; Xiidra® at various concentration (ranging from 1 nM to 100 uM) for 2 h before stimulation. An equal volume of 0.5% DMSO was used as a vehicle control. Then, the cells were treated with LPS at 5 ug/ml. The supernatants from treated cells were harvested at 24 h and placed in a 96 well for Luminex cytokine & chemokine profiling using a Luminex 200 multiplex assay (Luminex; R&D system, USA).
The main study arm with triplicate wells per group in a 24-well plate: • 1. Blank • 2. PBMC: 0.5% DMSO • 3. PBMC+LPS (5 ug/ml) • 4. PBMC+YY-101 100 uM • 5. PBMC+YY-101 10 uM • 6. PBMC+YY-101 1 uM • 7. PBMC+YY-101 0.1 uM • 8. PBMC+YY-101 0.01 uM • 9. PBMC+LPS (5 ug/ml)+Xiidra®100 uM • 10. PBMC+LPS (5 ug/ml)+Xiidra® 10 uM • 11. PBMC+LPS (5 ug/ml)+Xiidra® 1 uM • 12. PBMC+LPS (5 ug/ml)+Xiidra®0.1 uM • 13. PBMC+LPS (5 ug/ml)+Xiidra®0.01 uM • 14. PBMC+LPS (5 ug/ml)+Xiidra®0.001 uM • 15. PBMC+LPS (5 ug/ml)+YY-101 100 uM • 16. PBMC+LPS (5 ug/ml)+YY-101 10 uM • 17. PBMC+LPS (5 ug/ml)+YY-101 1 uM • 18. PBMC+LPS (5 ug/ml)+YY-101 0.1 uM • 19. PBMC+LPS (5 ug/ml)+YY-101 0.01 uM • 20. PBMC+LPS (5 ug/ml)+YY-101 0.001 uM • 21. PBMC+LPS (5 ug/ml)+YDE-011 100 uM • 22. PBMC+LPS (5 ug/ml)+YDE-011 10 uM • 23. PBMC+LPS (5 ug/ml)+YDE-011 1 uM • 24. PBMC+LPS (5 ug/ml)+YDE-011 0.1 uM • 25. PBMC+LPS (5 ug/ml)+YDE-011 0.01 uM • 26. PBMC+LPS (5 ug/ml)+YDE-011 0.001 uM • 27. PBMC+LPS (5 ug/ml)+YDE-043 100 uM • 28. PBMC+LPS (5 ug/ml)+YDE-043 10 uM • 29. PBMC+LPS (5 ug/ml)+YDE-043 1 uM • 30. PBMC+LPS (5 ug/ml)+YDE-043 0.1 uM • 31. PBMC+LPS (5 ug/ml)+YDE-043 0.01 uM • 32. PBMC+LPS (5 ug/ml)+YDE-043 0.001 uM
The number of PBMCs was measured after 24 hr of treatment. The culture both and trypan blue were diluted 1:1 and 10 ul was added to Countess cell counting chamber (Thermo fisher, USA). The number of PBMCs was measured using a Countess automated cell counter (Thermo fisher, USA).

[1] = PBMC + LPS(5 ug/ml) + test article 100 uM, Mean
[2] = PBMC + LPS(5 ug/ml) + test article 100 uM, single replicates
[3] = PBMC + LPS(5 ug/ml), test article 0.001 uM, Mean
[4] = PBMC + LPS(5 ug/ml), test article 0.001 uM, single replicates
[5] = PBMC + LPS(5 ug/ml), test article 0.01 uM, Mean
[6] = PBMC + LPS(5 ug/ml), test article 0.01 uM, single replicates
[7] = PBMC + LPS(5 ug/ml), test article 0.1 uM, Mean
[8] = PBMC + LPS(5 ug/ml), test article 0.1 uM, single replicates
[9] = PBMC + LPS(5 ug/ml), test article 1 uM, Mean
[10] = PBMC + LPS(5 ug/ml), test article 1 uM, single replicates
[11] = PBMC + LPS(5 ug/ml), test article 10 uM, Mean
[12] = PBMC + LPS(5 ug/ml), test article 10 uM, single replicates
[13] = PBMC + LPS(5 ug/ml), test article 100 uM, Mean
[14] = PBMC + LPS(5 ug/ml), test article 100 uM, single replicates

## CC(C)C[C@H](NC(=O)CNC(=O)[C@H](CC(C)C)NC(=O)[C@H](CCC(N)=O)NC(=O)CNC(=O)[C@@H]1C[C@@H](O)CN1)C(=O)N[C@@H](C)C(=O)NCC(=O)N1CCC[C@H]1C(=O)N[C@@H](CCCCN)C(=O)O [YDE-011] (H-[Hyp]GQLGLAGPK-OH)
PBMC + LPS(5 ug/ml) + test article 10 uM, single replicates (1st, 2nd, 3rd)
  Live cell: 5.4 10^5/ml and 5.8 10^5/ml and 4.7 10^5/ml
[1]
  Live cell: 6.1 10^5/ml
  Live cell (10^5/ml): 6.1 10^5/ml
  Live cell, Mean: 6.1 10^5/ml
PBMC + LPS(5 ug/ml) + test article 100 uM, individual replicates
  Live cell: 6.1 10^5/ml (2×) and 6.0 10^5/ml
PBMC + LPS(5 ug/ml) + test article 100 uM, individual replicates (1st, 2nd, 3rd)
  Live cell: 6.1 10^5/ml (2×) and 6.0 10^5/ml
[2]
  Live cell: 6.1 10^5/ml (2×) and 6.0 10^5/ml
  Live cell (10^5/ml): 6.1 10^5/ml (2×) and 6.0 10^5/ml
PBMC + LPS(5 ug/ml) + test article 100 uM, single replicates (1st, 2nd, 3rd)
  Live cell: 6.1 10^5/ml (2×) and 6.0 10^5/ml
PBMC + LPS(5 ug/ml), 0.001 uM, Mean
  Live cell: 5.4 10^5/ml
PBMC + LPS(5 ug/ml), 0.001 uM, single replicates
  Live cell: 4.5 10^5/ml and 5.8 10^5/ml (2×)
PBMC + LPS(5 ug/ml), 0.01 uM, Mean
  Live cell: 5.9 10^5/ml
PBMC + LPS(5 ug/ml), 0.01 uM, single replicates
  Live cell: 6.2 10^5/ml and 5.1 10^5/ml and 6.3 10^5/ml
PBMC + LPS(5 ug/ml), 0.1 uM, Mean
  Live cell: 5.8 10^5/ml
PBMC + LPS(5 ug/ml), 0.1 uM, single replicates
  Live cell: 6.6 10^5/ml and 5.0 10^5/ml and 5.7 10^5/ml
PBMC + LPS(5 ug/ml), 1 uM, Mean
  Live cell: 5.0 10^5/ml
PBMC + LPS(5 ug/ml), 1 uM, single replicates
  Live cell: 5.5 10^5/ml and 4.8 10^5/ml (2×)
PBMC + LPS(5 ug/ml), 10 uM, Mean
  Live cell: 5.3 10^5/ml
PBMC + LPS(5 ug/ml), 10 uM, single replicates
  Live cell: 5.4 10^5/ml and 5.8 10^5/ml and 4.7 10^5/ml
PBMC + LPS(5 ug/ml), 100 uM, Mean
  Live cell: 6.1 10^5/ml
PBMC + LPS(5 ug/ml), 100 uM, single replicates
  Live cell: 6.1 10^5/ml (2×) and 6.0 10^5/ml
[3]
  Live cell: 5.4 10^5/ml
  Total cell count: 6.3 10^5/ml
[4]
  Live cell: 4.5 10^5/ml and 5.8 10^5/ml (2×)
  Total cell count: 5.9 10^5/ml and 6.3 10^5/ml and 6.6 10^5/ml
  Viability: 75.0% and 92.0% and 88.0%
[5]
  Live cell: 5.9 10^5/ml
  Total cell count: 7.3 10^5/ml
[6]
  Live cell: 6.3 10^5/ml and 6.2 10^5/ml and 5.1 10^5/ml
  Total cell count: 7.6 10^5/ml and 7.8 10^5/ml and 6.4 10^5/ml
  Viability: 79.0%
[7]
  Live cell: 5.8 10^5/ml
  Total cell count: 7.1 10^5/ml
[8]
  Live cell: 6.6 10^5/ml and 5.0 10^5/ml and 5.7 10^5/ml
  Total cell count: 7.8 10^5/ml and 5.7 10^5/ml and 7.7 10^5/ml
  Viability: 85.0% and 87.0% and 74.0%
[9]
  Live cell: 5.0 10^5/ml
  Total cell count: 6.4 10^5/ml
[10]
  Live cell: 5.5 10^5/ml and 4.8 10^5/ml
  Total cell count: 6.2 10^5/ml and 7.0 10^5/ml and 5.9 10^5/ml
  Viability: 89.0% and 69.0% and 81.0%
[11]
  Live cell: 5.3 10^5/ml
  Total cell count: 6.0 10^5/ml
[12]
  Live cell: 5.4 10^5/ml and 5.8 10^5/ml and 4.7 10^5/ml
  Total cell count: 5.9 10^5/ml and 6.7 10^5/ml and 5.4 10^5/ml
  Viability: 91.0% and 86.0% and 88.0%
[13]
  Live cell: 6.1 10^5/ml
  Total cell count: 8.2 10^5/ml
[14]
  Live cell: 6.1 10^5/ml (2×) and 6.0 10^5/ml
  Total cell count: 7.6 10^5/ml and 8.1 10^5/ml and 9.0 10^5/ml
  Viability: 81.0% and 75.0% and 67.0%
Up to 100 μM, 24-hour treatment
  which treatments consistently affected the total and live number of PBMCs or the percent viability (in words): none of

Reference: US20230146455A1, “TREATMENT OF INFLAMMATORY DISEASES WITH PEPTIDES AND PHARMACEUTICAL COMPOSITIONS” (Yuyu Pharma, Inc., priority 2020, published 2023)
